Source: patent US11459319B2, “Cytochrome P450 inhibitors and uses thereof” (ANGION BIOMEDICA CORP., priority 2014, dated 2022)

Columns and labels:
[1] = molecular target: T1, human recombinant enzyme (CYP26) (Homo sapiens, UniProt O43174); settings: read-out: Km reported for the human recombinant enzyme; cited from earlier work
T1 sequence (O43174 1-497): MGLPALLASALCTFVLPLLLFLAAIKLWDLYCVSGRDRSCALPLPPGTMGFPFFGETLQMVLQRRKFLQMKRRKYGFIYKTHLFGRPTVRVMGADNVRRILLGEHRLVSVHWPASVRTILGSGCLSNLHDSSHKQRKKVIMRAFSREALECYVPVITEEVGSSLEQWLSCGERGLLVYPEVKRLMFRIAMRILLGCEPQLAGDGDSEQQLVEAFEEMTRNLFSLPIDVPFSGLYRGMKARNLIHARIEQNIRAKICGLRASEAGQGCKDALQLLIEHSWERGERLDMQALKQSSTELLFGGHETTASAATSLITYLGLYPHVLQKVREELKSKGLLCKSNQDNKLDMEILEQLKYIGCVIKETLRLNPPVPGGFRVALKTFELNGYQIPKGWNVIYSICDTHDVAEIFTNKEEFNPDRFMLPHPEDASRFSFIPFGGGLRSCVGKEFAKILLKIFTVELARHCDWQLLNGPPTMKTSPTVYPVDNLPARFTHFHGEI

CYP26 = molecular target: T2, CYP26 (Mus musculus, UniProt O55127); assay: CYP26 inhibition: substrate depletion assay for ATRA metabolism in induced mouse liver microsomes; format: biochemical
T2 construct: substrate depletion assay for ATRA metabolism in mouse microsomes; tissue Xenotech; host or cells: liver microsomes of mice treated with ATRA for four days
T2 sequence (O55127 1-497): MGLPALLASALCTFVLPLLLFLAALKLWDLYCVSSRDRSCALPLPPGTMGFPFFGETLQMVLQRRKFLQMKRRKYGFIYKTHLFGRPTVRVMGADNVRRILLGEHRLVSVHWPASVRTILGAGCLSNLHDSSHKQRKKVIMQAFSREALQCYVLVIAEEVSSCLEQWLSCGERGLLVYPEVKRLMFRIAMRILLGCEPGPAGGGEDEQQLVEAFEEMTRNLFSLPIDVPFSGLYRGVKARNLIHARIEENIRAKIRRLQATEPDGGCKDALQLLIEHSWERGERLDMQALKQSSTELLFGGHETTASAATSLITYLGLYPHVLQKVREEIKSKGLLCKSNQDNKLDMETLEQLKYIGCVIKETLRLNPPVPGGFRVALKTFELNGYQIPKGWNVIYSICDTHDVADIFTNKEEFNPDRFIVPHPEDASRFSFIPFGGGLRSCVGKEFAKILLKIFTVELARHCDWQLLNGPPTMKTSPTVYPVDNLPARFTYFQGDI

[2] = substrate: CC1=C(/C=C/C(C)=C/C=C/C(C)=C/C(=O)O)C(C)(C)CCC1; assay: cells, lysate or membranes named; settings: other: induced mouse microsomes, Michaelis-Menten kinetics; pH 7.4

Row | Molecule | IC50 (CYP26) | further results
1 | CC1=C(/C=C/C(C)=C/C=C/C(C)=C/C(=O)O)C(C)(C)CCC1 [ATRA, all-trans retinoic acid] | – | Km [1]: ~0.01 µM
2 | CCC(CC)C(c1ccc2nc(OCC(C)(C)C(=O)O)sc2c1)n1cncn1 (stereo not shown) [Example-1, 3-((6-(2-Ethyl-1-(1H-1,2,4-triazol-1-yl)butyl)benzo[d]thiazol-2-yl)oxy)-2,2-dimethylpropanoic Acid] | < 1 µM | –
3 | CCC(CC)C(c1ccc2nc(OCC(C)(C)C(=O)O)sc2c1)n1cnnc1 (stereo not shown) [Example-2, 3-((6-(2-Ethyl-1-(4H-1,2,4-triazol-4-yl)butyl)benzo[d]thiazol-2-yl)oxy)-2,2-dimethylpropanoic Acid] | < 1 µM | –
4 | CCC(CC)C(c1ccc2nc(OCC3(C(=O)O)CCCC3)sc2c1)n1cncn1 (stereo not shown) [Example-3, 1-(((6-(2-Ethyl-1-(1H-1,2,4-triazol-1-yl)butyl)benzo[d]thiazol-2-yl)oxy)methyl)cyclopentanecarboxylic Acid] | < 1 µM | –
5 | CCC(CC)C(c1ccc2nc(OCC3(C(=O)O)CCCC3)sc2c1)n1cnnc1 (stereo not shown) [Example-4, 1-(((6-(2-Ethyl-1-(4H-1,2,4-triazol-4-yl)butyl)benzo[d]thiazol-2-yl)oxy)methyl)cyclopentanecarboxylic Acid] | < 1 µM | –
6 | CCC(CC)C(c1ccc2nc(OCC3(C(=O)O)CCCCC3)sc2c1)n1cncn1 (stereo not shown) [Example-5, 1-(((6-(2-ethyl-1-(1H-1,2,4-triazol-1-yl)butyl)benzo[d]thiazol-2-yl)oxy)methyl)cyclohexanecarboxylic Acid] | < 1 µM | –
7 | CCC(CC)C(c1ccc2nc(OCC3(C(=O)O)CCCCC3)sc2c1)n1cnnc1 (stereo not shown) [Example-6, 1-(((6-(2-Ethyl-1-(4H-1,2,4-triazol-4-yl)butyl)benzo[d]thiazol-2-yl)oxy)methyl)cyclohexanecarboxylic Acid] | < 1 µM | –
8 | CCC(CC)C(c1ccc2nc(-c3ccc(C(=O)O)cc3)sc2c1)n1cncn1 (stereo not shown) [Example-7, 4-(6-(2-ethyl-1-(1H-1,2,4-triazol-1-yl)butyl)benzo[d]thiazol-2-yl)benzoic Acid] | < 1 µM | –
9 | CCC(CC)C(c1ccc2nc(-c3ccc(C(=O)O)cc3)sc2c1)n1cnnc1 (stereo not shown) [Example-8, 4-(6-(2-ethyl-1-(4H-1,2,4-triazol-4-yl)butyl)benzo[d]thiazol-2-yl)benzoic Acid] | < 1 µM | –
10 | CYP26 (Mus musculus) (protein) MGLPALLASALCTFVLPLLLFLAALKLWDLYCVSSRDRSCALPLPPGTMGFPFFGETLQMVLQRRKFLQMKRRKYGFIYKTHLFGRPTVRVMGADNVRRILLGEHRLVSVHWPASVRTILGAGCLSNLHDSSHKQRKKVIMQAFSREALQCYVLVIAEEVSSCLEQWLSCGERGLLVYPEVKRLMFRIAMRILLGCEPGPAGGGEDEQQLVEAFEEMTRNLFSLPIDVPFSGLYRGVKARNLIHARIEENIRAKIRRLQATEPDGGCKDALQLLIEHSWERGERLDMQALKQSSTELLFGGHETTASAATSLITYLGLYPHVLQKVREEIKSKGLLCKSNQDNKLDMETLEQLKYIGCVIKETLRLNPPVPGGFRVALKTFELNGYQIPKGWNVIYSICDTHDVADIFTNKEEFNPDRFIVPHPEDASRFSFIPFGGGLRSCVGKEFAKILLKIFTVELARHCDWQLLNGPPTMKTSPTVYPVDNLPARFTYFQGDI | – | Km [2]: 0.004 µM
